From patent US20260007601A1, “IONIZABLE CATIONIC LIPID COMPOUND AND COMPOSITION FOR DELIVERING NUCLEIC ACID AND USE THEREOF” (BEIJING YOUCAREKECHUANG PHARMACEUTICAL TECHNOLOGY CO., LTD., priority 2023, published 2026)

Assays:
293T cells [1] = test: Cell survival rate assay (CCK-8); type: cell-based; conditions: LNP containing 1.5 μg Fluc-mRNA, 24 hours, CCK-8
Experimental: (§1) Cell recovery and passaging: 293T cells were recovered and cultured in culture dishes to the required cell number.
(§2) Plating: The cells in the culture dish were digested, counted, plated in a 96-well plate at 10,000 cells per well, or in a 12-well plate at 150,000 cells per well, and cultured overnight until the cells adhered to the wall.
(§3) Cell recovery and passage: The method was the same as in Example 3.
(§4) Plating: The method was the same as Example 3.
The LNP formulations containing 1.5 μg Fluc-mRNA (prepared according to Example 4, the LNP formulation carrier components are cationic lipids, neutral lipids, structured lipids and polymer-conjugated lipids at a molar ratio of 49:10:39.5:1.5, wherein the cationic lipids are the cationic lipids listed in Table 1) and the Lipofectamine 3000 formulation were added to the cell culture medium of the 96-well plate, and the culture was continued for 24 hours. Then, 10 μL of CCK-8 solution was added to each well, and the culture plate was incubated in the incubator for 1 hour, and the absorbance at 450 nm was measured by a microplate reader.

[2] = Encapsulation rate, drug loading concentration and total RNA concentration detection (RiboGreen); type: physicochemical; conditions: LNP formulation of the named lipid
Source text: Encapsulation rate is a key quality attribute of liposomes. It refers to the percentage of drug content encapsulated in the lipid bilayer to the total amount of drug added, which can reflect the degree of drug encapsulation in liposomes. The Chinese Pharmacopoeia stipulates that the encapsulation rate should usually not be less than 80%.
The drug loading capacity is the ratio of the amount of drug in the liposome to the total amount of drug and carrier in the liposome. The drug loading capacity directly affects the clinical application dose of the drug, so the larger the drug loading capacity, the more it can meet clinical needs. The drug loading concentration is proportional to the drug loading capacity, and the relative proportion of the drug loading concentration can represent the relative proportion of the drug loading capacity. The relative proportion of the total RNA concentration can represent the relative proportion of the amount of mRNA carried by the LNP formulation.
1×TE buffer, 0.1% Triton X-100 buffer, and RiboGreen reagent (1:200) and mRNA standard stock solution were prepared.
An appropriate amount of sample was taken and added to an appropriate amount of 1×TE buffer, which was diluted to a solution containing about 2.8 μg of the test sample per 1 mL. Then the sample was added to a 96-well plate, where 50 μL of the diluted test sample or mRNA standard stock solution was added to each well, and then added with 1×TE buffer and 0.1% Triton X-100 buffer. The samples were incubated at 37° C. for 10 minutes, and 100 μL of RiboGreen reagent (1:200) was added to each well of the 96-well plate. The plate was centrifuged, and read using an ELISA reader, and the data was processed.

293T cells [3] = test: Fluorescence detection of Fluc-mRNA (cell transfection efficiency of LNP formulations); type: cell-based; conditions: for Relative light unit (RLU): LNP containing 0.3 μg Fluc-mRNA, 24 hours; for Multiples of values that equivalent to YK-201: RLU of YK-201 / RLU of the named lipid; for Multiples of values that equivalent to YK-202: RLU of YK-202 / RLU of the named lipid; for Multiples of values that equivalent to YK-209: RLU of YK-209 / RLU of the named lipid; for Ratio relative to SM-102: RLU of the named lipid / RLU of SM-102, times that of SM-102
Experimental: as §1, §2, §3, §4
The LNP formulation containing 0.3 μg Fluc-mRNA (prepared according to Example 4, the LNP formulation carrier components were cationic lipids, neutral lipids, structured lipids and polymer-conjugated lipids at a molar ratio of 49:10:39.5:1.5, and the cationic lipids were cationic lipids listed in Table 1) was added to the cell culture medium of a 96-well plate, and cultured for 24 hours. After that, the corresponding reagents were added according to the instructions of the Gaussia Luciferase Assay Kit, and the fluorescence expression intensity of each well was detected by the IVIS fluorescence detection system. This experiment verified the transfection efficiency of the LNP formulation in the cell, and the specific detection results are shown in Tables 6-9.

[4] = Particle size and polydispersity index (PDI) of nanolipid particles, dynamic light scattering; type: physicochemical; conditions: LNP formulation prepared from the named cationic lipid, 25° C
Experimental: The particle size and polydispersity index (PDI) were determined by dynamic light scattering method using a Malvern laser particle size analyzer. 10 μL of liposome solution was diluted to 1 mL with RNase-free deionized water and added to a sample pool. Each sample was measured three times. The measurement conditions were: 90° scattering angle, 25° C.

female BALB/C mice = test: Mouse in vivo imaging of Fluc-mRNA LNP formulations; design: average radiation intensity (mRNA expression): unit not given here; conditions: 10 μg Fluc-mRNA LNP intramuscularly
Experimental: The LNP formulation containing 10 μg Fluc-mRNA (prepared according to Example 4) was injected intramuscularly into female BALB/C mice aged 4 to 6 weeks and weighing 17 to 19 g, and the mice were intraperitoneally injected with fluorescent imaging substrates at specific time points (6 h, 24 h, 48 h and 7 d) after administration. The mice moved freely for 5 minutes, and then the average radiation intensity (corresponding to the fluorescence expression intensity) of the protein expressed by the mRNA carried by the LNP in the mice was detected by IVIS Spectrum small animal in vivo imager. The test results are shown in Tables 14 to 17 and FIGS. 12 to 14.

Work on CCCCCCCCC(CCCCCCCC)OC(=O)CCCCCN(CCCCCC(=O)OC(CCCCCCCC)CCCCCCCC)CCN(C)CCNC [YK-224] yielded a Cell survival rate (293T cells [1]) of 23.47%, a Drug loading concentration [2] of 38.81 µg/mL and an Encapsulation rate [2] of 98.7%. For the same compound, the “Total RNA concentration” value [2] was 39.31 µg/mL, the “Relative light unit (RLU)” value (293T cells [3]) was 88020 RLU and the “Multiples of values that equivalent to YK-201” value (from here on “Multiples … to YK-201”) (293T cells [3]) was 323.59. For the same compound, the “Multiples of values that equivalent to YK-202” value (“Multiples … to YK-202” below) (293T cells [3]) was 340.35, the “Multiples of values that equivalent to YK-209” value (shortened to “Multiples … to YK-209”) (293T cells [3]) was 239.25 and the “Ratio relative to SM-102” value (293T cells [3]) was 0.05. It also gave a PDI [4] of 30.3% and a Particle size [4] of 185 nm.
Work on CCCCCCCCCCOC(=O)CCCN(CCCCCC(=O)OCC(CCCCCCCC)CCCCCCCC)CCN(CC)CCO [YK-208] yielded a Cell survival rate (293T cells [1]) of 46.68%, a Drug loading concentration [2] of 37.80 µg/mL and an Encapsulation rate [2] of 88.2%. The “Total RNA concentration” value [2] was 42.84 µg/mL, the “Relative light unit (RLU)” value (293T cells [3]) was 3858487 RLU and the “Multiples … to YK-201” value (293T cells [3]) was 7.38. The “Multiples … to YK-202” value (293T cells [3]) was 7.76, the “Multiples … to YK-209” value (293T cells [3]) was 5.46 and the “Ratio relative to SM-102” value (293T cells [3]) was 2.32. It also gave a PDI [4] of 24.4% and a Particle size [4] of 167 nm.
With CCCCCCCCC(CCCCCCCC)OC(=O)CCCCCCCN(CCO)CCCCCCCC(=O)OCCC(CCCCCC)CCCCCC [Compound 21, 9-heptadecyl-8-(8-((3-hexylnonyl)oxy)-8-oxooctyl)-((2-hydroxyethyl)amino)octanoate, reference compound] the Cell survival rate (293T cells [1]) was 69.02%, the “Relative light unit (RLU)” value (293T cells [3]) was 1421028 RLU and the “Multiples … to YK-201” value (293T cells [3]) was 20.04. The “Multiples … to YK-202” value (293T cells [3]) was 21.08, the “Ratio relative to SM-102” value (293T cells [3]) was 0.85 and the “average radiation intensity (mRNA expression)” value (from here on “average radiation intensity”) (female BALB/C mice; 6 h) was 600390. For the same compound, the “average radiation intensity” value (female BALB/C mice; 24 h) was 108000, the “average radiation intensity” value (female BALB/C mice; 48 h) was 30025 and the “average radiation intensity” value (female BALB/C mice; 7 d) was 6102.
Work on CCCCCCCCCCOC(=O)CCCN(CCCCCC(=O)OCC(CCCCCCCC)CCCCCCCC)C(=O)SCCCN(C)C [YK-219] yielded a Cell survival rate (293T cells [1]) of 58.61%, a Drug loading concentration [2] of 30.31 µg/mL and an Encapsulation rate [2] of 64.2%. For the same compound, the “Total RNA concentration” value [2] was 47.23 µg/mL, the “Relative light unit (RLU)” value (293T cells [3]) was 1505963 RLU and the “Multiples … to YK-201” value (293T cells [3]) was 18.91. The “Multiples … to YK-202” value (293T cells [3]) was 19.89, the “Multiples … to YK-209” value (293T cells [3]) was 13.98 and the “Ratio relative to SM-102” value (293T cells [3]) was 0.90. The PDI [4] was 22.4% and the Particle size [4] was 217 nm.
For CCCCCCCCCCCOC(=O)CCCCCN(CCCCC(=O)OCC(CCCCCCCC)CCCCCCCC)CCNCC [YK-226], the Cell survival rate (293T cells [1]) was 27.90%, the “Relative light unit (RLU)” value (293T cells [3]) was 57660 RLU and the “Multiples … to YK-201” value (293T cells [3]) was 493.98. For the same compound, the “Multiples … to YK-202” value (293T cells [3]) was 519.55, the “Multiples … to YK-209” value (293T cells [3]) was 365.22 and the “Ratio relative to SM-102” value (293T cells [3]) was 0.03.
